Laboratory results as given in the supplement of paper PMC9151546.
± gives the standard deviation of the averaged measurements.

How the values were obtained:
CHO-K1 [1] = assay: benchmark concentration for 60% increase in hypodiploid frequency (BMC60); higher = less potent aneugen
In short: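 The benchmark concentration was derived in PROAST with Hill and exponential model families. The response for this fit was the percentage of hypodiploid nuclei measured by flow cytometry, with a benchmark response of a 60% increase over DMSO control and concentrations below 40% relative survival left out. CHO cells received 19 concentrations (4.50–200 µM; 1% DMSO vehicle) for 24 h at 37 °C without S9, or for 3–4 h with Aroclor 1254-induced rat liver S9 and then 24 h recovery.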

CHO-K1 [2] = assay: benchmark concentration for 30% increase in micronucleus frequency (BMC30); higher = less potent clastogen
Procedure: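 Benchmark concentration modelling (PROAST, Hill/exponential model families) of the 19-concentration flow-cytometric micronucleus assay in CHO-K1 cells, with and without rat liver S9. Only non-cytotoxic and adequate (relative survival >=40%) concentrations were used. BMR was a 30% increase in %MN (BMC30) or a 60% increase in %hypodiploid (BMC60) over control.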

[3] = S9 metabolic activation: without S9
[4] = S9 metabolic activation: with S9

SMILES | benchmark concentration (CHO-K1 [1]; [3]) | benchmark concentration (CHO-K1 [2]; [4]) | benchmark concentration (CHO-K1 [2]; [3]) | benchmark concentration (CHO-K1 [1]; [4])
O=C(O)C(F)(F)C(F)(F)C(F)(F)C(F)(F)C(F)(F)C(F)(F)C(F)(F)C(F)(F)C(F)(F)F [PFDA] | 73 µM | 73 µM |  | 
O=C(O)C1C(C(=O)O)C2(Cl)C(Cl)=C(Cl)C1(Cl)C2(Cl)Cl (stereo unspecified) [Chlorendic acid] | 97 µM |  | 110 µM | 
CC1(C)C(=O)N(Cl)C(=O)N1Cl [1,3-Dichloro-5,5-dimethylhydantoin] | 55 µM |  | 31 µM | 
CC(=O)OC1CC(C)OC(C)O1 (stereo unspecified) [Dimethoxane] |  | 86 µM | 30 µM | 59 µM
Nc1ccc(Cl)cc1 [4-Chloroaniline] | 31 µM |  | 63 µM | 
Cc1ccc2ncccc2c1 [6-Methylquinoline] | 120 µM | 22 µM |  | 51 µM
CCOP(=S)(OCC)Oc1nc(Cl)c(Cl)cc1Cl [Chlorpyrifos] | 69 µM | 29 µM |  | 42 µM
CCN(CC)N=O [N-Nitrosodiethylamine] | 31 µM |  | 21 µM | 
CCSC(=O)N1CCCCCC1 [Molinate] | 61.5 ± 3.5 µM | 41 µM |  | 
O=C1c2c(O)cccc2Cc2cccc(O)c21 [Anthralin] | 16 µM |  | 110 µM | 
Oc1ccc2ccccc2c1N=Nc1ccccc1 [C.I. Solvent Yellow 14] | 11 µM |  | 23 µM | 91 µM
COP(=O)(OC)OC=C(Cl)Cl [Dichlorvos] | 90 µM |  | 66 µM | 
Nc1nc(=O)c2nc(CNc3ccc(C(=O)N[C@@H](CCC(=O)O)C(=O)O)cc3)cnc2[nH]1 [Folic acid] | 110 µM | 57 µM |  | 
O=c1[nH]cc(F)c(=O)[nH]1 [5-Fluorouracil] | 99 µM |  | 110 µM | 
Oc1ccccc1 [Phenol] | 57 µM |  | 100 µM | 
Cc1ccc(C)c(O)c1 [2,5-Dimethylphenol] | 39 µM |  | 37 µM | 
